Experimental data as given in publication PMC9088798, “An Approach to Derive Functional Peptide Inhibitors of Transcription Factor Activity” (JACS Au, 2022).

Tests used:
TRE DNA [1] = assay: CD TRE DNA peak, binding of cJun to TRE DNA; settings: cJun 20 μM, TRE DNA 5 μM, ~281 nm
Description: The binding of cJun to TRE DNA can be observed by monitoring a DNA absorbance peak in the CD spectrum centered at ∼281 nm.[44] […] The addition of cJun (20 μM) to TRE DNA (5 μM) decreases this DNA peak by 55% as the cJun engages its target TRE site and alters the DNA structure (Figure 6A). Subsequent titration of HingeW into this bound cJun/TRE DNA mixture reverses the peak shift, with the peak increasing as DNA is released. […]
µM) alongside ampicillin, kanamycin and chloramphenicol to maintain the required plasmids, and IPTG (1 mM) to induce protein expression. The library transformants were […]
however a lower stringency is used initially before selection is increased in later steps.
Colonies from this first round of selection were pooled and serially grown in liquid culture at starting OD600 of 0.05 and grown at 37°C with shaking at 200 rpm until the OD600 […]
increased to the optimum 4 µM in subsequent passages. Bacteria containing the most effective functional antagonists were expected to produce higher levels of TRE-mDHFR which provides a growth advantage, and these will dominate the culture. […] This allows the occurrence of library members to be monitored as winner sequences are selected for. […]

TRE DNA [2] = assay: EMSA, binding of cJun bZIP to TRE DNA; settings: cJun bZIP 20 μM, TRE DNA 2 μM, relative to DNA alone
Description: To provide further evidence of functional antagonism, an electrophoretic mobility shift assay (EMSA) was employed. […] No bound cJun/TRE DNA band was observed as the overall charge of this complex prohibited entry into the gel. Antagonism was therefore best observed by monitoring the intensity of the free DNA band.
Isothermal Titration Calorimetry (ITC): Peptides were studied in an ITC buffer consisting of 10 mM potassium phosphate, 150 mM potassium fluoride and 5 mM TCEP at pH 7.4. Using a MicroCal VP-ITC instrument (Malvern), 10 µL injections of antagonist peptide (HingeW or A-FosW) at 10 µM were injected into the cell containing cJun at 1 µM.
MicroCal Origin software was used to record and analyse the heat change upon addition.
Control experiments involved the injection of the antagonist peptide sample into the cell containing ITC buffer alone to determine the heat of dilution which was subtracted. The resulting binding data were fit to a one site binding model to extract the enthalpy change of binding (ΔH) and the equilibrium binding constant (K D), from which the free energy change of binding (ΔG) and the entropy change of binding (ΔS) was calculated (41).
Thermodynamic parameters are presented as an average of two independent experiments with errors given as one standard deviation. […]

With “cJun bZIP: human cJun bZIP domain, Arg252 to Leu308 (target protein)” the “decrease of TRE DNA CD peak upon addition of cJun” value (TRE DNA [1]) was 55% and the “free DNA band intensity on adding cJun bZIP” value (TRE DNA [2]) was “significant reduction in the free DNA band intensity”.
